For 38 molecules, EC50 and IC50 results are on record in patent US20220362396A1, “AMINO-PYRAZINECARBOXAMIDE COMPOUNDS, CONJUGATES, AND USES THEREOF” (Silverback Therapeutics, Inc., priority 2018, published 2022).

The test system of assay [1] is TGFβ/SMAD Signaling Pathway SBE reporter cell line. The assay can be described thus: TGFβ reporter assay, in vitro small molecule screening (luciferase). In kind it is cell-based. To be noted: TGFβ stimulation, luminescence. Here is the method:
TGFβ/SMAD Signaling Pathway SBE reporter cell line was obtained from BPS Bioscience. Cells were passed, expanded, and stored in liquid nitrogen as per the supplier's instructions with the exception that growth media is changed to DMEM-C with Geneticin (DMEM supplemented with 10% fetal bovine serum, 1×NEAA, 1 mM Pyruvate, 2 mM glutamine, 50 μg/mL penicillin, 50 U/mL streptomycin and 400 μg/mL of Geneticin). The assay media was MEM supplemented with 0.5% fetal bovine serum, 1×NEAA, 1 mM Pyruvate, 50 μg/mL penicillin and 50 U/mL streptomycin.
Test samples (at desired concentrations diluted in assay media) were added to a 96-well assay plate, 20 μL per well. Reporter cells were harvested from the tissue culture flasks by incubation in small quantity of PBS at 37° C. for two minutes after the media in the flask is removed and cells rinsed with PBS. Cells were counted and diluted in the assay media at approximately 0.5×10^6 cells/mL and then 80 μL/well of cells were added to the assay plate containing the 20 μL/well of test samples (or media only), and incubated for approximately 5-6 hours at 37° C. in a 5% CO2 humidified incubator. After that time, 15 μL of TGFβ diluted to 12 ng/mL in the assay media was added to the plate. Controls included TGFβ titration (from 50 to 0 ng/mL) without inhibitors, and media only (without cells, inhibitor or TGFβ). Plates were incubated at 37° C. in a 5% CO2 humidified incubator for 18 h. Luciferase substrate solution is subsequently added at 100 μL per well, incubated in the dark at room temperature for 15 min, and luminescence is measured using a luminometer. EC50 values and curve fits were obtained using Prism (GraphPad Software).

A further assay addresses T1, TGFBR2 (Homo sapiens, UniProt P37173).
T1 construct: purchased Reaction Biology Corp
As to the kind of experiment: TGFBR2 RBC assay (enzyme inhibition assay, Reaction Biology Corp.). In kind it is biochemical. Here is the method: Compounds of the disclosure were also assayed by Reaction Biology Corp. using the TGFBR2 RBC assay (enzyme inhibition assay). […] NT refers to not tested.

Some results are limits rather than exact numbers.

T1 sequence (P37173 23-567): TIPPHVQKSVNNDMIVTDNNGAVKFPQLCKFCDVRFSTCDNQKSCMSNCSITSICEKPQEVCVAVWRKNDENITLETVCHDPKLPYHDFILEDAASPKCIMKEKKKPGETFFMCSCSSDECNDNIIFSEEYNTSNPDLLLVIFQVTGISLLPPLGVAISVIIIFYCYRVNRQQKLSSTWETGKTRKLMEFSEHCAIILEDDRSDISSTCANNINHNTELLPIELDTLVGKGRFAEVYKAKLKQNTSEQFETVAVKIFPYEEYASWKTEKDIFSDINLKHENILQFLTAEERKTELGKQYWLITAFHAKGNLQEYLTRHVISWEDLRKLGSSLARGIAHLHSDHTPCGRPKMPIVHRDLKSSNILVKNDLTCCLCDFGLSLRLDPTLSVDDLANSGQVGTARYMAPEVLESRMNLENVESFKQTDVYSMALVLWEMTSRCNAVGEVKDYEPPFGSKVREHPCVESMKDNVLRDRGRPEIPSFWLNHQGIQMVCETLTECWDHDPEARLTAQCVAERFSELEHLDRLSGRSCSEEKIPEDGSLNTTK

For orientation: EC50 means the concentration giving half of the maximal effect. Low values mean a more potent agent, high ones a less potent agent. A word on the IC50: it is the concentration that inhibits the measured activity by half. With `NCCc1ccc(-c2cnc(N)c(C(=O)Nc3cnc4ccccc4c3N3CCOCC3)n2)cc1` [Compound 130], the EC50 in assay [1] is greater than 1000 nM. At TGFBR2, this molecule registered an IC50 greater than 1000 nM.
As to `COc1cccc(-c2ccncc2NC(=O)c2nc(-c3ccc(CCNC(=O)OCc4ccccc4)cc3)cnc2N)c1` [Compound 24], the EC50 in assay [1] is 100 to 1000 nM. The IC50 against TGFBR2 lay in the range of 100 to 1000 nM.
Take `Cc1cnccc1-c1ccncc1NC(=O)c1nc(-c2ccc(CCNC(=O)OCc3ccccc3)cc2)cnc1N` [Compound 32]: the EC50 in assay [1] fell in the range of 50 to 100 nM. Further, at TGFBR2, the IC50 lay in the range of 100 to 1000 nM.
The like results for `Nc1ncc(-c2ccc(CCNC(=O)OCc3ccccc3)cc2)nc1C(=O)Nc1cnccc1-c1ccc2c(c1)OCO2` [Compound 26] were, in that order, 100 to 1000 nM and less than 50 nM.
In the case of `Nc1ncc(-c2ccc(O[C@H]3CCN(C(=O)OCc4ccccc4)C3)cc2)nc1C(=O)Nc1cnccc1N1CCOCC1` [Compound 164], in assay [1], the EC50 fell in the range of 100 to 1000 nM. For the same molecule, the IC50 on TGFBR2 fell in the range of 50 to 100 nM.
The corresponding values for `NCCc1ccc(-c2cnc(N)c(C(=O)Nc3cnccc3N3CCOCC3)n2)cc1` [Compound 6] are 50 to 100 nM and less than 50 nM.
With `Nc1ncc(-c2cccc3c2CCC3)nc1C(=O)Nc1cnccc1N1CCOCC1` [Compound 179], in assay [1], the EC50 was greater than 1000 nM. Besides, the IC50 against TGFBR2 is 50 to 100 nM.
The like results for `Nc1ncc(-c2ccc(CCNC(=O)OCc3ccccc3)cc2)nc1C(=O)Nc1cnccc1-c1ccc(O)cc1` [Compound 34] were, in that order, greater than 1000 nM and 100 to 1000 nM.
In assay [1], `CC(C)(C)OC(=O)NCCOc1cccc(-c2cnc(N)c(C(=O)Nc3cnccc3N3CCOCC3)n2)c1` [Compound 183] came in with an EC50 of 100 to 1000 nM. The IC50 against TGFBR2 was less than 50 nM.
The corresponding values for `Nc1nc(-c2ccc(CCC(=O)N3CCN(C(=O)OCc4ccccc4)CC3)cc2)cnc1C(=O)Nc1cnccc1N1CCOCC1` [Compound 86] are 100 to 1000 nM and less than 50 nM.
Consider `Nc1ncc(-c2ccc(CC(=O)NCCNC(=O)OCc3ccccc3)cc2)nc1C(=O)Nc1cnccc1N1CCOCC1` [Compound 94], for which the EC50 in assay [1] was 100 to 1000 nM. In addition, at TGFBR2, the IC50 is less than 50 nM.
As to `CNc1ccc(-c2cnc(N)c(C(=O)Nc3cnccc3N3CCOCC3)n2)cc1` [Compound 260], in assay [1], the EC50 is less than 50 nM. The molecule also returned an IC50 at TGFBR2 of less than 50 nM.
Take `C[C@H](NC(=O)OCC1c2ccccc2-c2ccccc21)C(=O)NCc1ccc(-c2cnc(N)c(C(=O)Nc3cnccc3N3CCOCC3)n2)cc1` [Compound 105]: the EC50 in assay [1] was in the range of 100 to 1000 nM. Moreover, the IC50 against TGFBR2 lay within 100 to 1000 nM.
Regarding `COc1cnccc1-c1ccncc1NC(=O)c1nc(-c2ccc(CCNC(=O)OCc3ccccc3)cc2)cnc1N` [Compound 33], the EC50 in assay [1] lay in the range of 100 to 1000 nM. The molecule also showed a 50% inhibitory concentration (IC50) at TGFBR2 greater than 1000 nM.
Turning to `Nc1ncc(-c2ccc(CC(=O)N3CCNCC3)cc2)nc1C(=O)Nc1cnccc1N1CCOCC1` [Compound 92], in assay [1], the EC50 fell in the range of 100 to 1000 nM. Also, the IC50 at TGFBR2 is less than 50 nM.
The like results for `Nc1ncc(-c2ccc(O[C@@H]3CCCN(C(=O)OCc4ccccc4)C3)cc2)nc1C(=O)Nc1cnccc1N1CCOCC1` [Compound 163] were, in that order, 100 to 1000 nM and 100 to 1000 nM.
With `COC(=O)c1cc(-c2cnc(N)c(C(=O)Nc3cnccc3N3CCOCC3)n2)ccc1OCCCN1C(=O)c2ccccc2C1=O` [Compound 240], in assay [1], the EC50 was greater than 1000 nM. On TGFBR2, the IC50 lay within 50 to 100 nM.
For `CC(C)[C@H](N)C(=O)N1CCC[C@H]1C(=O)NCc1ccc(-c2cnc(N)c(C(=O)Nc3cnccc3N3CCOCC3)n2)cc1` [Compound 112], the EC50 in assay [1] lay in the range of 50 to 100 nM. The same molecule yielded a half-inhibitory concentration (IC50) on TGFBR2 of less than 50 nM.
`NCCOc1ccc(-c2cnc(N)c(C(=O)Nc3cnccc3N3CCOCC3)n2)cc1` [Compound 64] showed an EC50 in assay [1] of 50 to 100 nM. The same molecule yielded an IC50 against TGFBR2 of less than 50 nM.
In assay [1], `CC1NCCc2cc(-c3cnc(N)c(C(=O)Nc4cnccc4N4CCOCC4)n3)ccc21` (stereo not shown) [Compound 234] gave an EC50 of 100 to 1000 nM. In addition, the IC50 on TGFBR2 is less than 50 nM.
Turning to `CC(C)(C)OC(=O)NC1CCc2cc(-c3cnc(N)c(C(=O)Nc4cnccc4N4CCOCC4)n3)ccc21` (stereo not shown) [Compound 215], the EC50 in assay [1] fell in the range of 100 to 1000 nM. The molecule also registered an IC50 on TGFBR2 of less than 50 nM.
On to `NCCc1ccc(-c2cnc(N)c(C(=O)Nc3cnccc3N3CCOCC3)n2)c(F)c1` [Compound 55], for which, in assay [1], the EC50 is less than 50 nM. Moreover, on TGFBR2, the IC50 is less than 50 nM.
For the molecule `Nc1ncc(-c2ccc(O[C@H]3CCCN(C(=O)OCc4ccccc4)C3)cc2)nc1C(=O)Nc1cnccc1N1CCOCC1` [Compound 165], the EC50 in assay [1] was in the range of 100 to 1000 nM. Moreover, at TGFBR2, the IC50 was in the range of 100 to 1000 nM.
In the case of `CC(C)(C)OC(=O)N1CCC[C@H]1C(=O)NCc1ccc(-c2cnc(N)c(C(=O)Nc3cnccc3N3CCOCC3)n2)cc1` [Compound 109], the EC50 in assay [1] fell in the range of 100 to 1000 nM. The same molecule displayed an IC50 against TGFBR2 of less than 50 nM.
The like results for `COc1ccc(-c2ccncc2NC(=O)c2nc(-c3ccc(CCNC(=O)OCc4ccccc4)cc3)cnc2N)cc1` [Compound 14] were, in that order, greater than 1000 nM and greater than 1000 nM.
With `CC(C)(C)OC(=O)N[C@@H](CO)Cc1ccc(-c2cnc(N)c(C(=O)Nc3cnccc3N3CCOCC3)n2)cc1` [Compound 199], the EC50 in assay [1] is greater than 1000 nM. For the same molecule, on TGFBR2, the IC50 was less than 50 nM.
As for `Nc1ncc(-c2ccc3c(c2)CC(N)C3)nc1C(=O)Nc1cnccc1N1CCOCC1` (stereo not shown) [Compound 213], the EC50 in assay [1] lay in the range of 50 to 100 nM. The molecule also came in with an IC50 at TGFBR2 of less than 50 nM.
`Cc1nccn1-c1ccncc1NC(=O)c1nc(-c2ccc(CCN)cc2)cnc1N` [Compound 138] registered an EC50 in assay [1] greater than 1000 nM. The IC50 against TGFBR2 was less than 50 nM.
Molecule `Nc1ncc(-c2ccc(CCNC(=O)OCc3ccccc3)cc2)nc1C(=O)Nc1cnccc1-c1ccc(F)cc1` [Compound 20] had an EC50 in assay [1] greater than 1000 nM. Moreover, the 50% inhibitory concentration (IC50) at TGFBR2 was greater than 1000 nM.
`Nc1ncc(-c2cc(Cl)ccc2Cl)nc1C(=O)Nc1cnccc1N1CCOCC1` [Compound 161]: the EC50 in assay [1] was 100 to 1000 nM. This molecule also yielded an IC50 at TGFBR2 of 100 to 1000 nM.
For `Nc1ncc(-c2ccc3c(c2)CCNC3)nc1C(=O)Nc1cnccc1N1CCOCC1` [Compound 77], in assay [1], the EC50 was in the range of 50 to 100 nM. In addition, the IC50 against TGFBR2 was 50 to 100 nM.
In assay [1], `CC(C)[C@H](N)C(=O)N[C@@H](C)C(=O)NCc1ccc(-c2cnc(N)c(C(=O)Nc3cnccc3N3CCOCC3)n2)cc1` [Compound 108] came in with an EC50 of 50 to 100 nM. Moreover, the IC50 at TGFBR2 was 50 to 100 nM.
`COc1cccc(OC)c1-c1cnc(N)c(C(=O)Nc2cnccc2N2CCOCC2)n1` [Compound 172] gave an EC50 in assay [1] greater than 1000 nM. At TGFBR2, this molecule had an IC50 greater than 1000 nM.
Regarding `Nc1ncc(Cc2ccccc2)nc1C(=O)Nc1cnccc1N1CCOCC1` [Compound 186], the EC50 in assay [1] is greater than 1000 nM. Also, the IC50 at TGFBR2 is greater than 1000 nM.
As for `Nc1ncc(-c2ccc(C[C@@H](N)CO)cc2)nc1C(=O)Nc1cnccc1N1CCOCC1` [Compound 202], the EC50 in assay [1] lay within 100 to 1000 nM. At TGFBR2, this molecule gave an IC50 of less than 50 nM.
The corresponding values for `COC(=O)[C@H](N)Cc1ccc(-c2cnc(N)c(C(=O)Nc3cnccc3N3CCOCC3)n2)cc1` [Compound 195] are 100 to 1000 nM and less than 50 nM.
Consider `Cc1cc(-c2ccncc2NC(=O)c2nc(-c3ccc(CCNC(=O)OCc4ccccc4)cc3)cnc2N)ccn1` [Compound 17], for which the EC50 in assay [1] lay in the range of 100 to 1000 nM. This molecule also displayed an IC50 against TGFBR2 of 100 to 1000 nM.
In turn, `Nc1ncc(-c2ccc(OC3CCNCC3)cc2)nc1C(=O)Nc1cnccc1N1CCOCC1` [Compound 167] had an EC50 in assay [1] of 50 to 100 nM. The IC50 at TGFBR2 was less than 50 nM.
